Test results reported in patent US7816522B2, “Triazolone derivatives” (Eisai Co., Ltd., priority 2006, dated 2010).

Molecular target: T1, human clotting factor VIIa (Homo sapiens, UniProt P08709)
T1 construct: a human clotting factor VIIa (hereinafter, “Factor VIIa”) purified sample; purchased Enzyme Research Laboratories HFVIIa
Experiment: Inhibitory activity against clotting factor VIIa (chromogenic substrate Spectrozyme FVIIa, TF/Factor VIIa enzyme solution)
Format: biochemical
Settings: human Factor VIIa 5 nmol/L with human TF 10 nmol/L, room temperature 40 minutes, 405 nm
How it was run: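 Human Factor VIIa (5 nmol/L) with human TF (10 nmol/L) in Tris-BSA buffer pH 7.4 containing 15 mmol/L CaCl2 and cephalin, with Spectrozyme FVIIa substrate. Reaction 40 min at room temperature; 4-nitroanilide read at 405 nm. IC50 by non-linear regression over 100 μmol/L–0.1 nmol/L.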

T1 sequence (P08709 213-466 limits assumed): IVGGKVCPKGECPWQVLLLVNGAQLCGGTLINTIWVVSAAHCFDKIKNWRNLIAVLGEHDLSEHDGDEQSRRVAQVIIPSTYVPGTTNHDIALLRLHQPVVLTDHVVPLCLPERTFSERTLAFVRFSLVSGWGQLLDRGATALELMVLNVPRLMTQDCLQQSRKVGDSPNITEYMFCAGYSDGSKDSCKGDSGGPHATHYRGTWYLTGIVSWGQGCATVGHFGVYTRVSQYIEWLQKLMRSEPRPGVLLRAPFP
T1 sequence (P08709 61-212 limits assumed): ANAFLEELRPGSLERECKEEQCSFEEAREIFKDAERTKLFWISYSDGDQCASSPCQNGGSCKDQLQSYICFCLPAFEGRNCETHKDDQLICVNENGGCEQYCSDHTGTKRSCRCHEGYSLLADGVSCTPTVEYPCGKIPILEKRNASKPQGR
T1 sequence (P13726 33-295 partner): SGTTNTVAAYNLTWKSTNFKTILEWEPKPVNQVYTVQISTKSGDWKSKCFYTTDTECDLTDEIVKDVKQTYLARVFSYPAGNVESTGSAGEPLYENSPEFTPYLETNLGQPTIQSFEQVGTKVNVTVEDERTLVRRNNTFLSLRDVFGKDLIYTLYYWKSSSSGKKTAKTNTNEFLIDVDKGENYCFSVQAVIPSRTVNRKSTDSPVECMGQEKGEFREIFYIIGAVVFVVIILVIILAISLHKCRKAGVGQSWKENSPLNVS

**Q.** With `COc1cc(OCCO)c(F)c(C(Nc2ccc(C(=N)N)cc2)c2nn(-c3ncccn3)c(=O)[nH]2)c1` (racemic) [Example 153, 4-({[2-fluoro-3-(2-hydroxyethoxy)-5-methoxyphenyl]-(5-oxo-1-pyrimidin-2-yl-4,5-dihydro-1H-[1,2,4]triazol-3-yl)methyl}amino)benzamidine] as the molecule, how does the IC50 read?
**A.** Its IC50 is 4.8 nM.

**Q.** With `COc1cc(OC)c(F)c(C(Nc2ccc(C(=N)N)cc2)c2nn(-c3ncc[nH]c3=O)c(=O)[nH]2)c1` (racemic) [Example 154, (R) and (S)-4-({(2-fluoro-3,5-dimethoxyphenyl)-[5-oxo-1-(3-oxo-3,4-dihydropyrazin-2-yl)]-4,5-dihydro-1H-[1,2,4]triazol-3-yl]methyl}amino)benzamidine acetate] as the molecule, how does the IC50 read?
**A.** The IC50 was 21 nM.

**Q.** How did the IC50 turn out when `COc1ccc(C(Nc2ccc(C(=N)N)cc2)c2nn(-c3ccsc3C(=O)O)c(=O)[nH]2)cc1OC` (racemic) [Example 155, (R) and (S)-3-{3-[(4-carbamimidoylphenylamino)-(3,4-dimethoxyphenyl)methyl]-5-oxo-4,5-dihydro[1,2,4]triazol-1-yl}thiophene-2-carboxylic acid acetate] was run?
**A.** The IC50 was 2.3 nM.

**Q.** `COc1cc(C(Nc2ccc(C(=N)N)cc2)c2nn(-c3ncccn3)c(=O)[nH]2)cc2c1OCCCO2` (racemic) [Example 156, (R) and (S)-4-{[(9-methoxy-3,4-dihydro-2H-benzo[b][1,4]dioxepin-7-yl)-(5-oxo-1-pyrimidin-2-yl-4,5-dihydro-1H-[1,2,4]triazol-3-yl)methyl]amino}benzamidine acetate] was tested. Which IC50 did it give?
**A.** The IC50 was 5.2 nM.

**Q.** How did the IC50 turn out when `COc1cc(OCCCO)cc(C(Nc2ccc(C(=N)N)cc2)c2nn(-c3ncccn3)c(=O)[nH]2)c1` (racemic) [Example 158, 4-({[3-(3-hydroxypropoxy)-5-methoxyphenyl]-(5-oxo-1-pyrimidin-2-yl-4,5-dihydro-1H-[1,2,4]triazol-3-yl)methyl}amino)benzamidine] was run?
**A.** The IC50 was 5.1 nM.

**Q.** `COc1cc(C(Nc2ccc(C(=N)N)cc2)c2nn(-c3ncccn3)c(=O)[nH]2)cc(OCCO)c1OC` (racemic) [Example 159, 4-({(R) and (S)-[3-(2-hydroxyethoxy)-4,5-dimethoxyphenyl]-(5-oxo-1-pyrimidin-2-yl-4,5-dihydro-1H-[1,2,4]triazol-3-yl)methyl}amino)benzamidine acetate] was tested. Which IC50 did it give?
**A.** Its IC50 is 11.7 nM.

**Q.** Which IC50 does the source give for `CCOc1cc(C(Nc2ccc(C(=N)N)cc2)c2nn(-c3ncccn3)c(=O)[nH]2)cnc1OC` (racemic) [Example 160, 4-{[(R) and (S)-(5-ethoxy-6-methoxypyridin-3-yl)-(5-oxo-1-pyrimidin-2-yl-4,5-dihydro-1H-[1,2,4]triazol-3-yl)methyl]amino}benzamidine acetate] here?
**A.** The IC50 was 9.4 nM.

**Q.** Which IC50 does the source give for `COc1cc(C(Nc2ccc(C(=N)N)cc2)c2nn(-c3ncccn3)c(=O)[nH]2)c(F)c2c1OCC2` (racemic) [Example 161, (R) and (S)-4-{[(4-fluoro-7-methoxy-2,3-dihydrobenzofuran-5-yl)-(5-oxo-1-pyrimidin-2-yl-4,5-dihydro-1H-[1,2,4]triazol-3-yl)methyl]-amino}benzamidine acetate] here?
**A.** Its IC50 is 9 nM.

**Q.** With `COc1cc(F)c(C(Nc2ccc(C(=N)N)cc2)c2nn(-c3ncsc3C(=O)O)c(=O)[nH]2)cc1OC` (racemic) [Example 162, (R) and (S)-4-{3-[(4-carbamimidoylphenylamino)-(2-fluoro-4,5-dimethoxyphenyl)methyl]-5-oxo-4,5-dihydro[1,2,4]triazol-1-yl}thiazole-5-carboxylic acid] as the molecule, how does the IC50 read?
**A.** The IC50 was 16.5 nM.

**Q.** How did the IC50 turn out when `COc1cc(OCCCO)c(F)c(C(Nc2ccc(C(=N)N)cc2)c2nn(-c3ncsc3C(=O)O)c(=O)[nH]2)c1` (racemic) [Example 163, (R) and (S)-4-(3-{(4-carbamimidoylphenylamino)-[2-fluoro-3-(3-hydroxypropoxy)-5-methoxyphenyl]methyl}-5-oxo-4,5-dihydro-[1,2,4]triazol-1-yl)thiazole-5-carboxylic acid] was run?
**A.** The IC50 was 10.5 nM.

**Q.** `COc1cc(C(Nc2ccc(C(=N)N)cc2)c2nn(-c3ncsc3C(N)=O)c(=O)[nH]2)c(F)c2c1OCOC2` (racemic) [Example 164, (R) and (S)-4-{3-[(4-carbamimidoylphenylamino)-(5-fluoro-8-methoxy-4H-benzo[1,3]dioxin-6-yl)methyl]-5-oxo-4,5-dihydro-[1,2,4]triazol-1-yl}thiazole-5-carboxylic acid amide] was tested. Which IC50 did it give?
**A.** The IC50 was 24.5 nM.

**Q.** With `COc1cc(C(Nc2ccc(C(=N)N)cc2)c2nn(-c3ncsc3C(=O)O)c(=O)[nH]2)c(F)c2c1OCOC2` (racemic) [Example 165, (R) and (S)-4-{3-[(4-carbamimidoylphenylamino)-(5-fluoro-8-methoxy-4H-benzo[1,3]dioxin-6-yl)methyl]-5-oxo-4,5-dihydro-[1,2,4]triazol-1-yl}thiazole-5-carboxylic acid] as the molecule, how does the IC50 read?
**A.** The IC50 was 25.8 nM.

**Q.** `COc1cc(C(Nc2ccc(C(=N)N)cc2)c2nn(-c3ncsc3C(=O)O)c(=O)[nH]2)cc2c1OCOC2` (racemic) [Example 166, (R) and (S)-4-{3-[(4-carbamimidoylphenylamino)-(8-methoxy-4H-benzo[1,3]dioxin-6-yl)methyl]-5-oxo-4,5-dihydro-[1,2,4]triazol-1-yl}thiazole-5-carboxylic acid] was tested. Which IC50 did it give?
**A.** The IC50 was 18.7 nM.

**Q.** `COc1cc(OCCO)c(F)c(C(Nc2ccc(C(=N)N)cc2)c2nn(-c3ncsc3C(=O)O)c(=O)[nH]2)c1` (racemic) [Example 167, (R) and (S)-4-(3-{(4-carbamimidoylphenylamino)-[2-fluoro-3-(2-hydroxyethoxy)-5-methoxyphenyl]methyl}-5-oxo-4,5-dihydro[1,2,4]triazol-1-yl)thiazole-5-carboxylic acid] was tested. Which IC50 did it give?
**A.** The IC50 was 11.1 nM.

**Q.** With `COc1cc(C(Nc2ccc(C(=N)N)cc2)c2nn(-c3ccsc3C(=O)O)c(=O)[nH]2)c(F)c2c1OCCO2` (racemic) [Example 168, (R) and (S)-3-{3-[(4-carbamimidoylphenylamino)-(5-fluoro-8-methoxy-2,3-dihydrobenzo[1,4]dioxin-6-yl)methyl]-5-oxo-4,5-dihydro-[1,2,4]triazol-1-yl}thiophene-2-carboxylic acid] as the molecule, how does the IC50 read?
**A.** The IC50 was 2.8 nM.

**Q.** For `COc1cc(C(Nc2ccc(C(=N)N)cc2)c2nn(-c3ccsc3C(=O)O)c(=O)[nH]2)cnc1OC` (racemic) [Example 169, 3-{3-[(R) and (S)-(4-carbamimidoylphenylamino)-(5,6-dimethoxypyridin-3-yl)methyl]-5-oxo-4,5-dihydro-[1,2,4]triazol-1-yl}thiophene-2-carboxylic acid acetate], which IC50 is on record?
**A.** The IC50 was 2.8 nM.

**Q.** Which IC50 does the source give for `COc1cnc(C(Nc2ccc(C(=N)N)cc2)c2nn(-c3ccsc3C(=O)O)c(=O)[nH]2)cc1OC` (racemic) [Example 170, 3-{3-[(R) and (S)-(4-carbamimidoylphenylamino)-(4,5-dimethoxypyridin-2-yl)methyl]-5-oxo-4,5-dihydro-[1,2,4]triazol-1-yl}thiophene-2-carboxylic acid] here?
**A.** Its IC50 is 8 nM.

**Q.** Which IC50 does the source give for `COc1cc(F)c(C(Nc2ccc(C(=N)N)cc2)c2nn(-c3ccsc3C(=O)O)c(=O)[nH]2)cc1OC` (racemic) [Example 171, (R) and (S)-3-{3-[(4-carbamimidoylphenylamino)-(2-fluoro-4,5-dimethoxyphenyl)methyl]-5-oxo-4,5-dihydro[1,2,4]triazol-1-yl}thiophene-2-carboxylic acid] here?
**A.** Its IC50 is 3.3 nM.

**Q.** For `COc1cc(C(Nc2ccc(C(=N)N)c(F)c2)c2nn(-c3ccccc3C(=O)O)c(=O)[nH]2)cc(C)n1` (racemic) [Example 173, 2-{3-[(R) and (S)-(4-carbamimidoyl-3-fluorophenylamino)-(2-methoxy-6-methylpyridin-4-yl)methyl]-5-oxo-4,5-dihydro-[1,2,4]triazol-1-yl}benzoic acid], which IC50 is on record?
**A.** The IC50 was 14.1 nM.

**Q.** Which IC50 does the source give for `COc1cc(OCCF)c(F)c(C(Nc2ccc(C(=N)N)cc2)c2nn(-c3cccc(N)n3)c(=O)[nH]2)c1` (racemic) [Example 174, (R) and (S)-4-({[1-(6-aminopyridin-2-yl)-5-oxo-4,5-dihydro-1H-[1,2,4]triazol-3-yl]-[2-fluoro-3-(2-fluoroethoxy)-5-methoxyphenyl]methyl}amino)benzamidine acetate] here?
**A.** The IC50 was 1.8 nM.

**Q.** With `COc1cc(C(Nc2ccc(C(=N)N)cc2)c2nn(-c3ncccc3C(=O)O)c(=O)[nH]2)c(F)c2c1OCCCO2` (racemic) [Example 176, (R) and (S)-2-{3-[(4-carbamimidoylphenylamino)-(6-fluoro-9-methoxy-3,4-dihydro-2H-benzo[b][1,4]dioxepin-7-yl)methyl]-5-oxo-4,5-dihydro-[1,2,4]triazol-1-yl}nicotinic acid] as the molecule, how does the IC50 read?
**A.** The IC50 was 6.1 nM.

**Q.** Which IC50 does the source give for `COc1cc(C(Nc2ccc(C(=N)N)cc2)c2nn(-c3ccccc3C(=O)O)c(=O)[nH]2)c(F)cc1OCCO` (racemic) [Example 178, (R) and (S)-2-(3-{(4-carbamimidoylphenylamino)-[2-fluoro-4-(2-hydroxyethoxy)-5-methoxyphenyl]methyl}-5-oxo-4,5-dihydro-[1,2,4]triazol-1-yl)benzoic acid] here?
**A.** The IC50 was 14.3 nM.

**Q.** For `CCc1cc(C(Nc2ccc(C(=N)N)cc2)c2nn(-c3ncsc3C(=O)O)c(=O)[nH]2)cc2c1OCOC2` (racemic) [Example 179, (R) and (S)-4-{3-[(4-carbamimidoylphenylamino)-(8-ethyl-4H-benzo[1,3]dioxin-6-yl)methyl]-5-oxo-4,5-dihydro-[1,2,4]triazol-1-yl}thiazole-5-carboxylic acid], which IC50 is on record?
**A.** The IC50 was 9.9 nM.

**Q.** `COc1ccc(C(Nc2ccc(C(=N)N)c(O)c2)c2nn(-c3ccccc3C(=O)O)c(=O)[nH]2)cc1OC` (racemic) [Example 183, 2-{3-[(R) and (S)-(4-carbamimidoyl-3-hydroxyphenylamino)-(3,4-dimethoxyphenyl)methyl]-5-oxo-4,5-dihydro-[1,2,4]triazol-1-yl}benzoic acid] was tested. Which IC50 did it give?
**A.** Its IC50 is 10.6 nM.

**Q.** For `COc1cc(F)c(C(Nc2ccc(C(=N)N)cc2)c2nn(-c3ncccc3F)c(=O)[nH]2)cc1OC` (racemic) [Example 184, (R) and (S)-4-({(2-fluoro-4,5-dimethoxyphenyl)-[1-(3-fluoropyridin-2-yl)-5-oxo-4,5-dihydro-1H-[1,2,4]triazol-3-yl]methyl}amino)benzamidine acetate], which IC50 is on record?
**A.** The IC50 was 6.7 nM.
